Reference: patent US5744121A (priority 1996, dated 1998)

How the values were obtained:
[1] = system: 5-HT1A receptor; test: Regional brain distribution in rats after iv injection; format: in vivo, Male Sprague-Dawley rats; conditions: ^123 I labeled, iv
Protocol: (§1) While the rats were under ether anesthesia, 0.2 mL of a saline solution containing [^123 I]1a and 1b (8-10 μCi) was injected directly into the femoral vein, and rats were sacrificed at various time points postinjection by cardiac excision under ether anesthesia. The organs of interest were removed and weighed and the radioactivity was counted with a Packard garnma automatic counter (Model 5000). The percentage dose per organ was calculated by a comparison of the tissue counts to suitably diluted aliquots of the injected material. Total activities of blood and muscle were calculated under the assumption that they were 7% and 40% of the total body weight, respectively.
(§2) By dissecting, weighing and counting samples from different brain regions (cortex, striatum, hippocampus, hypothalamus and cerebellum), the percentage dose/gram of the sample was calculated by comparing the sample counts with the count of the diluted initial dose.

[2] = as above; format: in vivo, Male Sprague-Dawley rats; conditions: rat, hippocampus; 60 minutes after iv injection, ^123 I labeled; read-out: Uptake in hippocampal tissue
Protocol: as §1, §2

[3] = system: 5-HT1A receptor; test: Blocking studies: regional brain uptake ratios in rats; format: in vivo; conditions: 30 min post iv injection of tracer
Protocol: In order to further characterize the in vivo brain uptake of 1a in rats, blocking studies were carried out to determine changes of the ratios of regional brain uptake. […] Ratios for each region were calculated based on the % dose/gram of each region divided by the same in CB. […] (HP: hippocampus; CB: cerebellum; HY: hypothalamus; CX: cortex; ST: striatum).

[4] = molecular target: T1, 5-HT1A receptor (rat hippocampal homogenates) (Rattus norvegicus, UniProt P19327); test: Inhibition of [^125 I]-8-OH-PIPAT binding to rat hippocampal homogenates; conditions: ligand [^125 I]-8-OH-PIPAT
T1 construct: in rat hippocampal membrane preparations; from tissue; host or cells: rat hippocampus (membrane preparations / tissue homogenates)
T1 sequence (P19327 1-422): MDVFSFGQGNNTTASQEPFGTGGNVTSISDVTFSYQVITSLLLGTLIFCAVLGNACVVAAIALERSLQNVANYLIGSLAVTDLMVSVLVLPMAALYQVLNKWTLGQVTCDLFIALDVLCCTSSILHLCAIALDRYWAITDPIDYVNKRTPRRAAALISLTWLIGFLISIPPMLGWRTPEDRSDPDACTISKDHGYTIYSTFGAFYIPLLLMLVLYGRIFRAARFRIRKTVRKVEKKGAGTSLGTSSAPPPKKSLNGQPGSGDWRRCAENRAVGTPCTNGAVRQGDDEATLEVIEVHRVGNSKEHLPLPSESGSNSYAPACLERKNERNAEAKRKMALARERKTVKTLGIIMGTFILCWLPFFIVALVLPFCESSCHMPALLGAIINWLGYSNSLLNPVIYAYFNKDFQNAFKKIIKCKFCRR
From the text: The 5-HT1A binding affinity of p-, m-, o- MPPI, p-fluoro- and p-nitro-MPP derivatives (1a-f) in rat hippocampal membrane preparations with [^123 ]

[5] = system: serotonin (5-HT1A) receptor; test: Selectivity for serotonin 5-HT1A receptor; format: binding
[6] = Biodistribution in rats after iv injection; format: in vivo, Male Sprague-Dawley rats; conditions: 2 min, average of 3 rats ± SD
Protocol: Male Sprague-Dawley rats (225-300 g), allowed free access to food and water, were used for an in vivo biodistribution study. While the rats were under ether anesthesia, 0.2 mL of a saline solution containing [^123 I]1a and 1b (8-10 μCi) was injected directly into the femoral vein, and rats were sacrificed at various time points postinjection by cardiac excision under ether anesthesia. The organs of interest were removed and weighed and the radioactivity was counted with a Packard […] automatic counter (Model 5000). The percentage dose per organ was calculated by a comparison of the tissue counts to suitably diluted aliquots of the injected material.

[7] = molecular target: T1, 5-HT1A receptor (rat hippocampal homogenates); test: Inhibition of [^125 I]-p-MPP binding to rat hippocampal homogenates; conditions: ligand [^125 I]-p-MPP, rat hippocampal homogenates; read-out: Ki
[8] = molecular target: 5-HT1A receptor; conditions: cited from earlier work
[9] = system: other receptors; conditions: cited from earlier work
[10] = system: α1 receptor; conditions: relative to 5-HT1A; cited from earlier work

COc1ccccc1N1CCN(CCN(C(=O)c2ccc(I)cc2)c2ccccn2)CC1 [Compound 1a, 4-(2'-methoxy)phenyl-1-[2'-(N-2"-pyridinyl)-p-iodobenzamido]ethyl piperazine]
5-HT1A related specific uptake (regional distribution pattern in rat brain) [1]: displayed the 5-HT1A related specific uptake | tissue uptake at 1 h [2]: 0.13 %ID/g | HP/CB ratio ([3]; (±)8-OH-DPAT pretreated (2 mg/kg, iv, 5 min prior)): 1.21 | HP/CB ratio ([3]; WAY 100635 pretreated (1 mg/kg, iv, 20 min prior)): 1.07 | HP/CB ratio ([3]; control (no pretreatment)): 3.69 | Ki [4]: 2.6 ± 0.7 nM | selectivity/affinity for serotonin 5-HT1A receptor [5]: unique high affinity and selectivity toward serotonin 5-HT1A sites | Brain uptake [6]: 1.22 % dose/organ | Ki [7]: 0.96 ± 0.1 nM

COc1ccccc1N1CCN(CCCCNC(=O)C23CC4CC(CC(C4)C2)C3)CC1 [4-[4-(1-adamantanecarboxamido)-butyl] 1-(2-methoxyphenyl)piperazine]
Kd ([8]; 5-HT1A receptor): 0.4 nM | binding affinity to other receptors [9]: devoid of binding affinity to other receptors

COc1ccccc1N1CCN(CCCCN2C(=O)c3ccccc3C2=O)CC1 [NAN-190, 1-(2-methoxyphenyl)-4-[4-(2-phthalimido)butyl]piperazine]
Ki ([8]; 5-HT1A affinity): 0.6 nM | potency for the α1 receptor [10]: equal potency for the α1 receptor
